{
  "source": "patent US9827189B2",
  "about": "“Stable parenteral DNJ compositions” (AMICUS THERAPEUTICS, INC., priority 2013, dated 2017)",
  "experiment": "Stability and integrity of 1-DNJ-HCl in buffer solutions at 60° C. by NP-HPLC (UV and CAD) and discoloration",
  "format": "physicochemical",
  "experimental": "1-DNJ-HCl was dissolved in sodium phosphate buffer. 1-DNJ-HCl concentration was 60 mg/mL; sodium phosphate buffer concentration was 100 mM at pH 4.89. The formulation was stored at 60° C. for 4 days. 1-DNJ-HCl solution in water was used as a control. Reaction rate for small molecules such as 1-DNJ-HCl generally follows Arrhenius equation where reaction rate nearly doubles for every 10° C. increase in the temperature. Thus, under this model, the reaction rate at 60° C. would be 2^5 or 32 times the reaction rate at 10° C. Therefore during 4 days at 60° C. 1-DNJ-HCl would degrade by approximately the same percentage as during 128 days (4*32) at 10° C. The stability of 1-DNJ-HCl was measured by normal phase high performance liquid chromatography (NP-HPLC). 1-DNJ-HCl was recorded by UV chromatograms and by Charged Aerosol Detector (CAD) chromatograms. Mobile phase consisted of ACN/30 mM Ammonium Acetate (90/10, v/v). The flow rate was 1.0 ml/min with 5 μl injection at 400° C. UV absorbance was measured at 220 nm CAD detector settings were 35.0 psi, Gain: 100 pA. 1-DNJ-HCl was dissolved in sodium acetate buffer. The 1-DNJ-HCl concentration was 60 mg/mL; sodium acetate buffer concentration was 50 mM at pH 5.5. The formulation was stored at 60° C. for 4 days. 1-DNJ-HCl solution in water was used as control. Reaction rate for small molecules such as 1-DNJ-HCl generally follows the Arrhenius equation, in which the reaction rate nearly doubles for every 10°K increase in the temperature. Thus the reaction rate, under this model, at 60° C. would be 2^5 or 32 times the reaction rate at 10° C. Therefore during 4 days at 60° C. 1-DNJ-HCl would degrade by approximately same percentage as during 128 days at 10° C. The stability of 1-DNJ-HCl was measured by NP-HPLC. Presence of 1-DNJ-HCl was recorded by UV absorbance detector and by Charged Aerosol Detector. Mobile phase consisted of ACN/30 mM Ammonium Acetate (90/10, v/v). The flow rate was 1.0 ml/min with 5 μl injection at 400 C. UV absorbance was measured at 220 nm. CAD detector settings were 35.0 psi, Gain: 100 pA. 1-DNJ-HCl was dissolved in sodium citrate buffer that further includes EDTA. 1-DNJ-HCl concentration was 60 mg/mL; sodium citrate buffer concentration was 50 mM at pH 4.6. The EDTA concentration was 0.05% w/v. Some samples were stored under the nitrogen atmosphere (essentially 100% nitrogen) while others were stored under air. The formulation was stored at 60° C. for 8 days. Stability of 1-DNJ-HCl was measured by NP-HPLC. Presence of 1-DNJ-HCl was recorded by UV absorbance detector and by Charged Aerosol Detector. Mobile phase consisted of ACN/30 mM Ammonium Acetate (90/10, v/v). The flow rate was 1.0 ml/min with 5 μl injection at 400 C. UV absorbance was measured at 220 nm. CAD detector settings were 35.0 psi, Gain: 100 pA. 1-DNJ-HCl was dissolved in sodium citrate buffer. 1-DNJ-HCl concentration was 60 mg/mL; sodium citrate buffer concentration was 50 mM at pH 4.7. The formulation was stored at 60° C. for 8 days. 1-DNJ-HCl solution in water was used as control. Stability of 1-DNJ-HCl was measured by NP-HPLC. Presence of 1-DNJ-HCl was recorded by UV absorbance detector and by Charged Aerosol Detector. Mobile phase consisted of ACN/30 mM Ammonium Acetate (90/10, v/v). The flow rate was 1.0 ml/min with 5 μl injection at 400 C. UV absorbance was measured at 220 nm. CAD detector settings were 35.0 psi, Gain: 100 pA. 1-DNJ-HCl was dissolved in sodium citrate buffer. 1-DNJ-HCl concentration was 60 mg/mL; sodium citrate buffer concentration was 50 mM at pH 5.0. The formulation was stored at 60° C. for 17 days. The samples were stored under the nitrogen atmosphere (essentially 100% nitrogen). 1-DNJ-HCl solution in water was used as control. Reaction rate for small molecules such as 1-DNJ-HCl generally follows Arrhenius equation where reaction rate nearly doubles for every 10°K increase in the temperature. Thus reaction rate at 60° C. would be 2^5 or 32 times the reaction rate at 10° C. Therefore during 17 days at 60° C. […]",
  "key": {"[1]": {"settings": "60 mg/mL in 50 mM sodium acetate buffer pH 5.5, 60° C., 4 days, hydrochloride"}, "[2]": {"settings": "60 mg/mL in 50 mM sodium citrate buffer pH 4.6, EDTA 0.05% w/v, nitrogen atmosphere, 60° C., 8 days"}, "[3]": {"settings": "60 mg/mL in 50 mM sodium citrate buffer pH 4.6, EDTA 0.05% w/v, stored under air, 60° C., 8 days"}, "[4]": {"settings": "60 mg/mL in 100 mM sodium phosphate buffer pH 4.89, 60° C., 4 days"}, "[5]": {"settings": "60 mg/mL in 100 mM sodium phosphate buffer pH 4.89, 60° C., 4 days, hydrochloride"}, "[6]": {"settings": "control 1-DNJ-HCl aqueous solution, 60° C., 4 days"}, "[7]": {"settings": "control 1-DNJ-HCl aqueous solution, 60° C., 8 days"}, "[8]": {"settings": "control 1-DNJ-HCl aqueous solution, 60° C., 17 days"}, "[9]": {"settings": "sodium citrate buffer, summary of the Examples"}},
  "note": "“Also recorded” adds a separate entry of the source. Where a name gives a salt, the structure may show the parent alone.",
  "data": [
    {"compound": "OC[C@H]1NC[C@H](O)[C@@H](O)[C@@H]1O", "note": "[1-DNJ-HCl, 1-deoxynojirimycin hydrochloride]", "values": [
      {"measurement": "Presence of 1-DNJ-HCl (NP-HPLC)", "setting": "60 mg/mL in 50 mM sodium acetate buffer pH 5.5, 60° C., 4 days", "result": "still present"},
      {"measurement": "Discoloration", "setting": "[1]", "result": "discoloration of the acetate buffer solution was observed; also recorded: resulted in discoloration"},
      {"measurement": "New compounds (UV and CAD chromatograms)", "setting": "[1]", "result": "detected presence of new compounds; also recorded: presence of additional compounds"},
      {"measurement": "Presence of 1-DNJ-HCl (NP-HPLC)", "setting": "60 mg/mL in 50 mM sodium citrate buffer pH 4.6, EDTA 0.05% w/v, 60° C., 8 days", "result": "still present"},
      {"measurement": "Discoloration", "setting": "[2]", "result": "remained clear with no visible discoloration"},
      {"measurement": "New compounds (UV and CAD chromatograms)", "setting": "[2]", "result": "No new compounds were detected"},
      {"measurement": "Discoloration", "setting": "[3]", "result": "slight discoloration"},
      {"measurement": "New compounds (UV and CAD chromatograms)", "setting": "[3]", "result": "showed presence of new compounds"},
      {"measurement": "Presence of 1-DNJ-HCl (NP-HPLC)", "setting": "60 mg/mL in 50 mM sodium citrate buffer pH 4.7, 60° C., 8 days", "result": "still present"},
      {"measurement": "Presence of 1-DNJ-HCl (NP-HPLC)", "setting": "60 mg/mL in 50 mM sodium citrate buffer pH 5.0, nitrogen atmosphere, 60° C., 17 days", "result": "still present"},
      {"measurement": "Presence of 1-DNJ-HCl (NP-HPLC)", "setting": "[4]", "result": "still present"},
      {"measurement": "Stability", "setting": "[4]", "result": "not stable"},
      {"measurement": "Discoloration", "setting": "[5]", "result": "discoloration of the phosphate buffer solution was observed; also recorded: resulted in discoloration"},
      {"measurement": "New compounds (UV and CAD chromatograms)", "setting": "[5]", "result": "detected presence of new compounds; also recorded: presence of additional compounds"},
      {"measurement": "Appearance of solution", "setting": "[6]", "result": "remainded clear"},
      {"measurement": "New compounds (UV and CAD chromatograms)", "setting": "[6]", "result": "No new compounds were detected"},
      {"measurement": "Discoloration", "setting": "[7]", "result": "No discoloration was observed"},
      {"measurement": "New compounds (UV and CAD chromatograms)", "setting": "[7]", "result": "No new compounds were detected"},
      {"measurement": "Discoloration", "setting": "[8]", "result": "No discoloration was observed"},
      {"measurement": "New compounds (UV and CAD chromatograms)", "setting": "[8]", "result": "No new compounds were detected"},
      {"measurement": "Relative stability among buffers", "setting": "sodium citrate buffer compared with sodium phosphate and sodium acetate buffers", "result": "most stable"},
      {"measurement": "Additional compounds (HPLC)", "setting": "[9]", "result": "little to no presence of additional compounds"},
      {"measurement": "Discoloration", "setting": "[9]", "result": "little to no discoloration"}
    ]}
  ]
}
